In patent US9289445B2, “Compositions and methods for treating or preventing a retrovirus infection” (University of Rochester, priority 2011, dated 2016):

Key:
HIV-1 RT [1] = molecular target: T1, HIV-1 RT (Human immunodeficiency virus type 1 group M subtype B, UniProt P04585); experiment: Single nucleotide extension at macrophage nucleotide concentrations; type: biochemical; conditions: rNTP alone at macrophage concentration
T1 construct: Pre-Steady State Kinetic Parameters of HIV-1 RT for dTTP/dUTP
Excerpt: FIGS. 4A-4E compare the dNTP and rNTP incorporation rates of HIV-1 RT at nucleotide concentrations found in human macrophages. Incorporation kinetics of HIV-1 RT (green circle) for individual dNTPs and rNTPs at their concentrations found in macrophages (see Table 1) were compared by single nucleotide extension reactions. FIG. 4A is a gel showing a representative time-course reaction set for dATP alone, ATP alone, or both dATP and ATP at their macrophage concentrations. P: unextended 17-mer primer, E: extended 18-mer product. and C: no RT control. FIG. 4B includes graphs. The percentages of the primer extension at early time points were plotted to compare the incorporation rate for each dNTP or rNTP alone as well as for dNTPs and rNTPs at their macrophage concentrations. FIG. 4C is a gel showing a time-course reaction. Identical reactions were conducted with SIVagm Sab-1 RT. FIG. 4D is a table showing the steady state Km values of HIV-1 RT to rNTPs determined by single nucleotide incorporation assays. FIG. 4E is a graph comparing rNTP concentrations (black bars) of macrophages and PBMCs and the Km values (red zone) of HIV-1 RT to rNTPs. Grey bars: average concentrations of dNTPs of the two target cell types obtained from Table 1.
The incorporation kinetics for individual dNTPs and rNTPs by retrovirus RT at the concentrations found in non-dividing cells were assessed. For this, a primer extension reaction similar to that used in FIG. 3C was employed, except nucleotide specific primers and a single dNTP, rNTP, or both were used to estimate individual nucleotide incorporation rates. […] Upon combining dNTPs and rNTPs in a reaction (FIGS. 4A and B, purple dotted lines), the total single nucleotide extension rate appeared to be elevated as compared to the rates of either dNTP (red line) or rNTP alone. When primer extension products were plotted by time, primer extension was accelerated in the presence of both dNTPs and rNTPs at their macrophage concentrations as compared to the reactions containing either dNTPs or rNTPs alone. The results of this single nucleotide assay are consistent with the data from the multiple nucleotide incorporation assay (FIG. 3C).

HIV-1 RT [2] = molecular target: T1, HIV-1 RT; experiment: Pre-steady state quench flow titrations for dTTP and dUTP; type: biochemical
Procedure: To confirm that selectivity is not pronounced during the binding or isomerization steps of polymerization, pre-steady state quench flow titrations for dTTP and dUTP were performed with HIV-1 RT.

SIVagm Sab1 RT = experiment: Steady state kinetics of reverse transcriptase for dTTP/dUTP; type: biochemical, simian immunodeficiency virus (SIVagm Sab); conditions: SIV RT
Procedure: (§1) Retrovirus RT was assessed for its ability to incorporated dTTP and dUTP at physiologically relevant concentrations. First, Km of HIV-1 RT, SIV RT, MuLV RT, and FIV RT for both dTTP and dUTP was measured.
(§2) All primer extension reactions were analyzed with urea denaturing 10-16% PAGE gels and scanned with a phosphoimager (Biorad, Hercules, Calif.) and quantified with the Biorad Quantity One software. Nonlinear regression analysis was done with Kaleida Graph (Synergy Software, Reading, Pa.). Rates were determined with a single exponential, and Michaelis Menten fits were completed as previously described in Kennedy et al. Biochemistry 48:11161-11168 (2009).

FIV RT = FIV RT (Feline immunodeficiency virus, UniProt P16088); experiment: as above; type: biochemical
Procedure: as §1, §2

MuLV RT = MuLV RT (Moloney murine leukemia virus, UniProt P03355); experiment: as above; type: biochemical
Procedure: as §1, §2

HIV-1 RT [3] = molecular target: T1, HIV-1 RT; experiment: as above; type: biochemical
Procedure: as §1
The single nucleotide incorporation reactions were conducted using 20 nM template/primers (40mer RNA template annealed to Primer A, Ext-T primer, Ext-G primer, or Ext-C primer) and 20 nM RT in 1× reaction buffer for 5 minutes at varying concentrations of NTP. Reactions were performed in triplicate.
as §2

HIV-1 RT [4] = molecular target: T1, HIV-1 RT; experiment: Primer extension followed by E. coli UNG2 digestion (dUTP incorporation); type: biochemical
Procedure: FIG. 8A includes a schematic of a coupled RT extension reaction UNG2 digestion assay and a gel. RT was incubated with i) the dNTP concentrations found in macrophages or PBMCs, and ii) either the dUTP concentration for those cells types or ddH20. These reactions were quenched with EDTA and subjected to E. Coli UNG2 digestion, followed by 95° C. incubation and UREA PAGE gel electrophoresis. The digested bands (*) were quantified and plotted relative to total unextended and extended products. […] FIG. 8C includes a gel showing the results of single nucleotide extension reactions of HIV-1 RT with dTTP and dUTP concentrations found in macrophages. […] The rates of product formation for dTTP (black line), dUTP (blue line), and both dTTP and dUTP (green line) were plotted.
HIV-1 RT mediated DNA synthesis in nucleotide pools found in dividing and non-dividing cells was further assessed using a primer extension assay followed by E. coli UNG2 digestion to quantify the amount of dUTP incorporated under these condition (FIG. 8). The presence of a […] band at the first dTTP/dUTP incorporation site was used to monitor the fraction of DNAs that contained a dUTP following UNG digestion (see * in FIG. 8). […] The single nucleotide extension assays were performed to compare the rate of incorporation dTTP, dUTP, or both nucleotides at concentrations found in non-dividing cells. […]

[5] = system: HIV-1 vector (D3-GFP) in primary human macrophages; experiment: HIV-GFP vector transduction of primary macrophages (GFP FACS); type: cell-based; conditions: ddUTP pretreated macrophages, flow cytometry
Procedure: Human primary macrophages were preincubated with different concentrations of rACT (0, 10, 100 and 100 μM) for 24 hours and then transduced with HIV-GFP vector (equal p24 amounts). The percentages of GFP positive macrophages and PI positive cells in a representative donor, which were determined by FACS at 7 days post transduction, are shown. […] These experiments were performed in triplicate from three different blood donors.
Primary human macrophages were pretreated with ddUTP and transduced with a single round VSV-G pseudotyped HIV-1 vector (D3HIV). […] FIG. 10B is a graph showing the results from flow cytometry analysis of the transduced cells.
Next, rACT was evaluated for its ability to inhibit HIV-1 replication in non-dividing cells. The transduction efficiency of an HIV-1 vector in primary human macrophages in the presence and absence of rACT was measured. Human macrophages, which were prepared from multiple donors, were pre-incubated with various concentrations of rACT, and then transduced with an HIV vector (D3-GFP), which expressed all HIV-1 proteins except Env and Nef (replaced with eGFP). Virus infectivity was determined by FACS analysis for GFP expression at 7 days post infection.
Dideoxy uracil triphosphate (ddUTP) was assessed for its ability to inhibit viral reverse transcription in non-dividing cells. […]

[6] = system: HIV-1 vector (DHIV-GFP) in activated CD4+ T cells; experiment: HIV-GFP vector transduction of activated CD4+ T cells (GFP FACS); type: cell-based; conditions: ddUTP, CD4+ T cells
Procedure: Next, rACT was evaluated for its ability to inhibit HIV-1 replication in non-dividing cells. The transduction efficiency of an HIV-1 vector in primary human macrophages in the presence and absence of rACT was measured. Human macrophages, which were prepared from multiple donors, were pre-incubated with various concentrations of rACT, and then transduced with an HIV vector (D3-GFP), which expressed all HIV-1 proteins except Env and Nef (replaced with eGFP). Virus infectivity was determined by FACS analysis for GFP expression at 7 days post infection. […] Finally, the effect of rACT on HIV-1 infection in activated CD4^+ T cells was examined.
(§3) Dideoxy uracil triphosphate (ddUTP) was assessed for its ability to inhibit viral reverse transcription in non-dividing cells. Primary human macrophages and CD4^+ T-cells were isolated from human buffy coats and pretreated with ddUTP. The treated cells were then transduced with a single round of VSV-G pseudotyped HIV-1 vector D3-HIV in the presence of various concentrations of drug.
rACT was tested in T cells as follows, human primary activated CD4^+ T cells (2.5×10^5) cells isolated from two donors were pre-treated with 0, 0.1, and 1 mM rACT for 4 hours, and then the cells were transduced with DHIV-GFP. The transduced cells were fixed at 48 hours post transduction, and analyzed by FACS for determining the percent of GFP cells. […]

[7] = system: HIV-1 2-LTR DNA circles (proviral DNA synthesis) in macrophages; experiment: Quantitative 2LTR circle PCR in transduced macrophages; type: cell-based; conditions: ddUTP treated cells
Procedure: Human macrophages, which were prepared from multiple donors, were pre-incubated with various concentrations of rACT, and then transduced with an HIV vector (D3-GFP), which expressed all HIV-1 proteins except Env and Nef (replaced with eGFP).
as §3
Equal p24 level of the produced vector was used for infecting human macrophages pre-incubated with different concentrations of rACT (RI Chemicals, CA) for 12 hours. For ddUTP, the produced vector was pre-incubated for at least two hours. One half of the harvested cells were used for determining the percentages of the GFP expressing and/or propidium iodide (PI) stained cells by FACS at 7 days post infection. All cells used to asses transduction efficiency were gated or stained with propidium iodide to assure live cells were measured. The remaining cells were used for the extraction of genomic DNA. Quantitative 2LTR circle PCR assay using real-time PCR was normalized by total genomic DNA (Biorad, Hercules, Calif.).

[8] = system: primary human macrophages
Procedure: The treated cells were then transduced with a single round of VSV-G pseudotyped HIV-1 vector D3-HIV in the presence of various concentrations of drug.
The purified human monocytes from three different donors were differentiated to macrophages as described previously, and D3HIV-GFP vector system expressing GFP, was also prepared as previously described in Jamburuthugoda et al. J. Biol. Chem. 281:13388-13395 (2006); Diamond et al. J. Biol. Chem. 279:51545-51553 (2004); Jamburuthugoda et al. J. Biol. Chem. 283:9206-9216 (2008); and Weiss et al. Biochemistry 43:4490-4500 (2004). […] One half of the harvested cells were used for determining the percentages of the GFP expressing and/or propidium iodide (PI) stained cells by FACS at 7 days post infection. All cells used to asses transduction efficiency were gated or stained with propidium iodide to assure live cells were measured.

`Nc1ncnc2c1ncn2[C@@H]1O[C@H](COP(=O)(O)OP(=O)(O)OP(=O)(O)O)[C@@H](O)[C@H]1O` [ATP] was tested, and the “rNTP incorporation by HIV-1 RT” value (HIV-1 RT [1]) was “efficiently”.
In the case of `Nc1ccn([C@@H]2O[C@H](COP(=O)(O)OP(=O)(O)OP(=O)(O)O)[C@@H](O)[C@H]2O)c(=O)n1` [CTP], the “rNTP incorporation by HIV-1 RT” value (HIV-1 RT [1]) is reported as “efficiently”.
In the case of `Nc1nc2c(ncn2[C@@H]2O[C@H](COP(=O)(O)OP(=O)(O)OP(=O)(O)O)[C@@H](O)[C@H]2O)c(=O)[nH]1` [GTP], the “rNTP incorporation by HIV-1 RT” value (HIV-1 RT [1]) is reported as “less efficiently”.
For `O=c1ccn([C@@H]2O[C@H](COP(=O)(O)OP(=O)(O)OP(=O)(O)O)[C@@H](O)[C@H]2O)c(=O)[nH]1` [UTP], the “rNTP incorporation by HIV-1 RT” value (HIV-1 RT [1]) was “less efficiently”.
`Cc1cn([C@H]2C[C@H](O)[C@@H](COP(=O)(O)OP(=O)(O)OP(=O)(O)O)O2)c(=O)[nH]c1=O` [dTTP] gave a Kd (HIV-1 RT [2]) of 3.4 ± 0.62 µM, a Kpol (HIV-1 RT [2]) of 85.72 ± 7.3 S^−1 and a Selectivity (HIV-1 RT [2]) of 1.0. For the same compound, the kpol/kd (HIV-1 RT [2]) was 25 μM^−1 S^−1, the Km (SIVagm Sab1 RT) was 0.0184 ± 0.0043 µM and the “Selectivity (dTTP/dUTP)” value (SIVagm Sab1 RT) was 0.839. For the same compound, the Km (FIV RT) was 0.0586 ± 0.0066 µM, the “Selectivity (dTTP/dUTP)” value (FIV RT) was 3.754 and the Km (MuLV RT) was 0.0504 ± 0.022 µM. For the same compound, the “Selectivity (dTTP/dUTP)” value (MuLV RT) was 4.969, the Km (HIV-1 RT [3]) was 0.0218 ± 0.0028 µM and the “Selectivity (dTTP/dUTP)” value (HIV-1 RT [3]) was 1.298.
For `O=c1ccn([C@H]2C[C@H](O)[C@@H](COP(=O)(O)OP(=O)(O)OP(=O)(O)O)O2)c(=O)[nH]1` [dUTP], the Kd (HIV-1 RT [2]) was 5.1 ± 1.93 µM, the Kpol (HIV-1 RT [2]) was 194.39 ± 30.0 S^−1 and the Selectivity (HIV-1 RT [2]) was 1.52. For the same compound, the kpol/kd (HIV-1 RT [2]) was 38 μM^−1 S^−1, the Km (SIVagm Sab1 RT) was 0.017 ± 0.0035 µM and the “dUTP incorporation, fraction of all synthesized DNA” value (HIV-1 RT [4]; dUTP and dNTP levels found in non-dividing cells) was “⅓”. The “dUTP incorporation, non-dividing versus dividing cell environment” value (HIV-1 RT [4]; non-dividing compared to dividing cell environment) was “approximately 5 fold”, the Km (FIV RT) was 0.18 ± 0.0045 µM and the Km (MuLV RT) was 0.253 ± 0.0521 µM. It also gave a Km (HIV-1 RT [3]) of 0.0277 ± 0.007 µM.
`O=c1ccn([C@H]2CC[C@@H](COP(=O)(O)OP(=O)(O)OP(=O)(O)O)O2)c(=O)[nH]1` [ddUTP, Dideoxy uracil triphosphate] was tested, and the “inhibition of transduction (eGFP positive live macrophages)” value [5] was “dose dependent inhibition of transduction”, the “reduction in transduction efficiency” value [6] was “Little or no reduction in transduction efficiency” and the “2LTR circles (QT-PCR)” value [7] was 2LTR circles accumulated in the cells treated with higher concentrations of drug. The cell death [8] was “little cell death”.
